{"source": "ChEMBL document CHEMBL5614392", "about": "“Discovery of novel N2-indazole derivatives as phosphodiesterase 4 inhibitors for the treatment of inflammatory bowel disease” (Eur J Med Chem, 2024)", "key": {"[1]": {"molecular_target": "T1, 3',5'-cyclic-AMP phosphodiesterase 4D (Homo sapiens, UniProt Q08499)", "T1 sequence (Q08499 whole entry)": "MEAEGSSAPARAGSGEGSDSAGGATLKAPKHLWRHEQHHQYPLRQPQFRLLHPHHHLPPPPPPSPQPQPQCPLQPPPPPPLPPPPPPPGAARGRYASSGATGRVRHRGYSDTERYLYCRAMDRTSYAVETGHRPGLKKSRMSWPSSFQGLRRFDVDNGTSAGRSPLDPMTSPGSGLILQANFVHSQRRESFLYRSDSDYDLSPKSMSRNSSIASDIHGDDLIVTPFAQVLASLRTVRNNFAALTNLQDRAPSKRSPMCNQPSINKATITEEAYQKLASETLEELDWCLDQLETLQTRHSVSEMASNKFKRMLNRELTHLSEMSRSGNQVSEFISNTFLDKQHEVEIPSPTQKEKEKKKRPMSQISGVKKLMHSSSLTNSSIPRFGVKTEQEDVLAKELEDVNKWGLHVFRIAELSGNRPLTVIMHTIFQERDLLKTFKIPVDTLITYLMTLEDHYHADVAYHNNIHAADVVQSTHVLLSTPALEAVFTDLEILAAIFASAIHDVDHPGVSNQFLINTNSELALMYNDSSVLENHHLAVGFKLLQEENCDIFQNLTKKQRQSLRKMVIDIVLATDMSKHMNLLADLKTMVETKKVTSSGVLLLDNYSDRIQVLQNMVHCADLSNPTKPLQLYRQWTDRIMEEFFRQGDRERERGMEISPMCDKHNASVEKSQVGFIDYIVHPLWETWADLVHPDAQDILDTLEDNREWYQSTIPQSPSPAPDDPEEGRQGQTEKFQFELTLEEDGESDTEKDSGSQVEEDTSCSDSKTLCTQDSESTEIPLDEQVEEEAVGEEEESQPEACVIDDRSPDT", "assay": "Inhibition of PDE4D7 (unknown origin) using FAM-cyclic-3'5'-AMP as substrate at 10 nM incubated for 1 hrs by fluorescence polarization assay relative to control"}, "[2]": {"assay": "Selectivity ratio of IC50 for PDE9A (unknown origin) to IC50 for PDE4D (unknown origin)"}, "[3]": {"test_system": "Mus musculus", "assay": "Antiinflammatory activity against DSS-induced colitis C57BL/6J mouse model assessed as reduction in inflammatory cell infiltration in colon at 3 to 10 mg/kg, po pretreated with DSS for 10 days followed by twice daily compound administration for 8 days starting from day 3 to day 10 by H and E staining based analysis", "type": "functional, organism-based", "details": "dose 3-10 mg/kg, time 8.0 day"}, "[4]": {"test_system": "Mus musculus", "assay": "(§1) Antiinflammatory activity against DSS-induced colitis C57BL/6J mouse model assessed as reduction in mucosal damage in colon at 3 to 10 mg/kg, po pretreated with DSS for 10 days followed by twice daily compound administration for 8 days starting from day 3 to day 10 by H and E staining based analysis", "type": "functional, organism-based", "details": "dose 3-10 mg/kg, time 8.0 day"}, "[5]": {"test_system": "Mus musculus", "assay": "Antiinflammatory activity against DSS-induced colitis C57BL/6J mouse model assessed as decrease in disease activity index at 10 mg/kg, po pretreated with DSS for 10 days followed by twice daily compound administration for 8 days starting from day 3 to day 10 relative to control", "type": "functional, organism-based", "details": "time 8.0 day"}, "[6]": {"assay": "Selectivity ratio of IC50 for PDE8A (unknown origin) to IC50 for PDE4D (unknown origin)"}, "[7]": {"molecular_target": "High affinity 3',5'-cyclic-AMP phosphodiesterase 7A (Homo sapiens) (UniProt Q13946)", "sequence (Q13946 whole entry)": "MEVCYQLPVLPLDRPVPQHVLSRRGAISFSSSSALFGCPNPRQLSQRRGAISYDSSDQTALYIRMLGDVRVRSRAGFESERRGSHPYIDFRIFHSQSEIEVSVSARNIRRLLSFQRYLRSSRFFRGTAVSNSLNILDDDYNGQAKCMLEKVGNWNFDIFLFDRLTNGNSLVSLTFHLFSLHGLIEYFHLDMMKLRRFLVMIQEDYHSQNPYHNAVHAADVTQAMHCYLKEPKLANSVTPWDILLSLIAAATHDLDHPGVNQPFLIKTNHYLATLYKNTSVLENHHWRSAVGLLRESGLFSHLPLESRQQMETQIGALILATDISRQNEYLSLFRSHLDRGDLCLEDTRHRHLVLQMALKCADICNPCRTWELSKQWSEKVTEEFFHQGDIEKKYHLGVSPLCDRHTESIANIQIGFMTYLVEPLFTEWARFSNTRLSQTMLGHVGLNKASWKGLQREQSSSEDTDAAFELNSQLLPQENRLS", "assay": "Inhibition of PDE7A (unknown origin) using FAM-cyclic-3'5'-AMP as substrate at 10 uM incubated for 1 hrs by fluorescence polarization assay relative to control"}, "[8]": {"test_system": "Mus musculus", "assay": "Antiinflammatory activity against DSS-induced colitis C57BL/6J mouse model assessed as decrease in body weight loss at 10 mg/kg, po pretreated with DSS for 10 days followed by twice daily compound administration for 8 days starting from day 3 to day 10 and measured on day 6", "type": "functional, organism-based", "details": "time 4.0 day"}, "[9]": {"molecular_target": "T1, 3',5'-cyclic-AMP phosphodiesterase 4D", "assay": "Inhibition of PDE4D (unknown origin) using FAM-cyclic-3'5'-AMP as substrate incubated for 1 hrs by fluorescence polarization assay"}, "[10]": {"assay": "Selectivity ratio of IC50 for PDE7A (unknown origin) to IC50 for PDE4D (unknown origin)"}, "[11]": {"test_system": "Mus musculus", "assay": "Antiinflammatory activity against DSS-induced colitis C57BL/6J mouse model assessed as increase in colon length at 3 to 10 mg/kg, po pretreated with DSS for 10 days followed by twice daily compound administration for 8 days starting from day 3 to day 10", "type": "functional, organism-based", "details": "dose 3-10 mg/kg, time 8.0 day"}, "[12]": {"test_system": "Mus musculus", "assay": "Antiinflammatory activity against DSS-induced colitis C57BL/6J mouse model assessed as decrease in body weight loss at 10 mg/kg, po pretreated with DSS for 10 days followed by twice daily compound administration for 8 days starting from day 3 to day 10 relative to control", "type": "functional", "design": "scale not given: the % may be the effect or the level left", "details": "time 8 day"}, "[13]": {"molecular_target": "High affinity cGMP-specific 3',5'-cyclic phosphodiesterase 9A (Homo sapiens) (UniProt O76083)", "sequence (O76083 whole entry)": "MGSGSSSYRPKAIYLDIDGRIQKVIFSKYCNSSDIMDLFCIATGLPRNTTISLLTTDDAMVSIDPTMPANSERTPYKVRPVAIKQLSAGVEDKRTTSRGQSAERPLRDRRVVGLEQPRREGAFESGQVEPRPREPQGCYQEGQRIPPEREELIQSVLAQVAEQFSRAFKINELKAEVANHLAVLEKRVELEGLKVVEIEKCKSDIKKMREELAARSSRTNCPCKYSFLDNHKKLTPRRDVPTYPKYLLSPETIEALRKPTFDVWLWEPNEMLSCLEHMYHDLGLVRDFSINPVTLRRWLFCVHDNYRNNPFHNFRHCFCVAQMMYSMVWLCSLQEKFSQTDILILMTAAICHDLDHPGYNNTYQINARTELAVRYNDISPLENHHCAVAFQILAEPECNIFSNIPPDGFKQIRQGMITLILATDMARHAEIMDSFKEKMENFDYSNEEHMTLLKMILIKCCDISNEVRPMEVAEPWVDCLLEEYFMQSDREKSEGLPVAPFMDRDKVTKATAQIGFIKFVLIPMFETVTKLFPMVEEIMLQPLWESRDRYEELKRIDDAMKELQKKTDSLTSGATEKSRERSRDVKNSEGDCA", "assay": "Inhibition of PDE9A (unknown origin) using FAM-cyclic-3'5'-AMP as substrate at 10 uM incubated for 1 hrs by fluorescence polarization assay relative to control"}, "[14]": {"test_system": "Mus musculus", "assay": "as §1, with “crypt structure loss” for “mucosal damage”", "type": "functional, organism-based", "details": "dose 3-10 mg/kg, time 8.0 day"}, "[15]": {"molecular_target": "High affinity cAMP-specific and IBMX-insensitive 3',5'-cyclic phosphodiesterase 8A (Homo sapiens) (UniProt O60658)", "sequence (O60658 whole entry)": "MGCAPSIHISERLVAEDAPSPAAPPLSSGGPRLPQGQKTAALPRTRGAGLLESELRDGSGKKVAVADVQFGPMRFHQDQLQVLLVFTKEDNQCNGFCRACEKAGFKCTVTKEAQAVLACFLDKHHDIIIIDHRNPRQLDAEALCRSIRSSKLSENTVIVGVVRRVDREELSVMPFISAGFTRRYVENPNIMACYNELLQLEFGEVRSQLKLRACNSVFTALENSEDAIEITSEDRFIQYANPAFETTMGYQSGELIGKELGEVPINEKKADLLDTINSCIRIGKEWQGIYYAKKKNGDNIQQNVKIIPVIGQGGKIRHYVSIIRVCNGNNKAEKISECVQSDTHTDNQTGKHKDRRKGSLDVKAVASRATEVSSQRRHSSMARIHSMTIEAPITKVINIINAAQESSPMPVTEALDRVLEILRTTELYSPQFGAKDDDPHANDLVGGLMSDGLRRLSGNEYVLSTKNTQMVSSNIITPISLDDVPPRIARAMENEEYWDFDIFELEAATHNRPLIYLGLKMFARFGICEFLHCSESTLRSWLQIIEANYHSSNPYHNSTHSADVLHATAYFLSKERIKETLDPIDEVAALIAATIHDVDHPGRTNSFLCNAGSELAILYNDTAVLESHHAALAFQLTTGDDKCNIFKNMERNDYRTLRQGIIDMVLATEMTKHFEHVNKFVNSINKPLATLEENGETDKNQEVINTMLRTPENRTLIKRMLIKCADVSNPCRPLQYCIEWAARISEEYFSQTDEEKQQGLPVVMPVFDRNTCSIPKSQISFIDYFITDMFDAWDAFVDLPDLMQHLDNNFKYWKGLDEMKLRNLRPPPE", "assay": "Inhibition of PDE8A (unknown origin) using FAM-cyclic-3'5'-AMP as substrate at 10 uM incubated for 1 hrs by fluorescence polarization assay relative to control"}, "[16]": {"test_system": "RAW264.7", "assay": "Antiinflammatory activity against mouse RAW264.7 cells assessed as inhibition of LPS-induced IL-6 mRNA production at 10 uM incubated for 24 hrs by SYBR green quantitative PCR analysis", "type": "functional, cell-based"}, "[17]": {"test_system": "Mus musculus", "assay": "as §1, with “lamina propria breakdown” for “mucosal damage”", "type": "functional, organism-based", "details": "dose 3-10 mg/kg, time 8.0 day"}, "[18]": {"molecular_target": "T1, 3',5'-cyclic-AMP phosphodiesterase 4D", "assay": "Inhibition of PDE4D7 (unknown origin) using FAM-cyclic-3'5'-AMP as substrate incubated for 1 hrs by fluorescence polarization assay"}, "[19]": {"assay": "Acute toxicity in male C57BL/6J mouse assessed as body weight loss at 1 g/Kg, po administered for 14 days", "type": "organism-based", "details": "in vivo, 1000 mg/kg, 336 h, time 14 day"}, "[20]": {"molecular_target": "T1, 3',5'-cyclic-AMP phosphodiesterase 4D", "assay": "Inhibition of PDE4D7 (unknown origin) using FAM-cyclic-3'5'-AMP as substrate at 100 nM incubated for 1 hrs by fluorescence polarization assay relative to control"}, "[21]": {"test_system": "RAW264.7", "assay": "Antiinflammatory activity against mouse RAW264.7 cells assessed as inhibition of LPS-induced TNF-alpha mRNA production at 10 uM incubated for 24 hrs by SYBR green quantitative PCR analysis", "type": "functional, cell-based"}, "[22]": {"molecular_target": "3',5'-cyclic-AMP phosphodiesterase 4B (Homo sapiens, UniProt Q07343)", "sequence (Q07343 whole entry)": "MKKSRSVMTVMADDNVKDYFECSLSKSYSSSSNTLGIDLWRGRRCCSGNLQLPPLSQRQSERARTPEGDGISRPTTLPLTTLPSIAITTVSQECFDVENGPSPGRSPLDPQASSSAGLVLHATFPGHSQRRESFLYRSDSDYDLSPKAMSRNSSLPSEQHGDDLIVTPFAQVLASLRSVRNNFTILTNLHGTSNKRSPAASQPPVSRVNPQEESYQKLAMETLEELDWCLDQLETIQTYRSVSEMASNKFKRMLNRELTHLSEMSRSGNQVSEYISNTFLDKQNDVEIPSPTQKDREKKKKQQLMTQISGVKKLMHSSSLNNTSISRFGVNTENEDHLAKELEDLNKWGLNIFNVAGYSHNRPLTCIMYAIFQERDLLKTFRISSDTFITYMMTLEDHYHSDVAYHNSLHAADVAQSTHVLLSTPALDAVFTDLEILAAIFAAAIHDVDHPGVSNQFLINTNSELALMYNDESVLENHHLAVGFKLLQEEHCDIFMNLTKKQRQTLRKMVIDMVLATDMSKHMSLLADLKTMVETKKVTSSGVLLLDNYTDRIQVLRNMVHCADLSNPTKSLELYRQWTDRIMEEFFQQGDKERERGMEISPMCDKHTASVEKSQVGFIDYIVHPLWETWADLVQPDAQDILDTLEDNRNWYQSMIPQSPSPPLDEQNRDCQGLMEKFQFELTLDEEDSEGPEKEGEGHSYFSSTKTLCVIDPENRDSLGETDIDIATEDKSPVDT", "assay": "Inhibition of PDE4B (unknown origin) using FAM-cyclic-3'5'-AMP as substrate incubated for 1 hrs by fluorescence polarization assay"}, "[23]": {"assay": "Toxicity in ketamine/xylazine-induced anesthetic male C57BL/6J mouse model assessed as emetogenic potential by measuring reduction in anesthesia duration at 5 to 10 mg/kg, po preadministered with compound for 15 mins followed by ketamine/xylazine administration", "type": "organism-based", "details": "in vivo, 0.25 h, dose 5-10 mg/kg"}, "[24]": {"test_system": "HT-22", "assay": "Cytotoxicity against mouse HT-22 cells at 10 to 30 uM", "type": "toxicity, cell-based", "details": "ht-22, 30 µM, dose 10-30 µM"}, "[25]": {"assay": "Acute toxicity in male C57BL/6J mouse assessed as animal death at 1 g/Kg, po administered for 14 days", "type": "organism-based", "details": "in vivo, 1000 mg/kg, 336 h, time 14 day"}, "[26]": {"assay": "Selectivity ratio of IC50 for PDE3B (unknown origin) to IC50 for PDE4D (unknown origin)"}, "[27]": {"molecular_target": "cGMP-inhibited 3',5'-cyclic phosphodiesterase 3B (Homo sapiens) (UniProt Q13370)", "sequence (Q13370 whole entry, looked up)": "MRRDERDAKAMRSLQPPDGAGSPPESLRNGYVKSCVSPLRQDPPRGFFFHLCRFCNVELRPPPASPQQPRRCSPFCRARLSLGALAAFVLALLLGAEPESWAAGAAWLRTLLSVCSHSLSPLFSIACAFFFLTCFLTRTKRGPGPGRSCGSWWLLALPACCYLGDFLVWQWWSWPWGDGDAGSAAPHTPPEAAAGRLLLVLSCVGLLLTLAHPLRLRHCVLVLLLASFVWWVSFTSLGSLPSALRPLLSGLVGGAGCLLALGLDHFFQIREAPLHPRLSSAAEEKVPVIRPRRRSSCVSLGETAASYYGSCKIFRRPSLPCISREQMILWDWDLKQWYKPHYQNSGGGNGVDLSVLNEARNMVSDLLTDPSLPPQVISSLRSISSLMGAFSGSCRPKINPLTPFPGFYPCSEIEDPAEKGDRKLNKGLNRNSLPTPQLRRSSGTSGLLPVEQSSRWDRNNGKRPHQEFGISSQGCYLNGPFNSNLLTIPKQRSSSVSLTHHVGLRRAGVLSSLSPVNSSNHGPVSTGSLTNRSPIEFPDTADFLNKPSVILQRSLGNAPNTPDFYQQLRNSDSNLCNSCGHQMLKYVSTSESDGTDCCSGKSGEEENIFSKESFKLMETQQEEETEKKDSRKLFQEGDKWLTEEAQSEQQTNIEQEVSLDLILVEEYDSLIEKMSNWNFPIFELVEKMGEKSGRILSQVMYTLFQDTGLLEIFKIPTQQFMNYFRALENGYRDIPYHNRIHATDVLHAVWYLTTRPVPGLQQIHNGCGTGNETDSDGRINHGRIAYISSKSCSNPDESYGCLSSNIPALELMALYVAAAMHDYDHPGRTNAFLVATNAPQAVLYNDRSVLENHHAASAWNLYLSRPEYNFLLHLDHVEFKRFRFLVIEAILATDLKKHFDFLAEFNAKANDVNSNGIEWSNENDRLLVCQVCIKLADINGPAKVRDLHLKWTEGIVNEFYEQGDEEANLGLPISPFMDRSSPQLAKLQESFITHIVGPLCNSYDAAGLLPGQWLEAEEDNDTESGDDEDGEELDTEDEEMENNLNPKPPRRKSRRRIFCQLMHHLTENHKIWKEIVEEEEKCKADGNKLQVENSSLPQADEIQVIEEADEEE", "assay": "Inhibition of PDE3B (unknown origin) using FAM-cyclic-3'5'-AMP as substrate at 10 uM incubated for 1 hrs by fluorescence polarization assay relative to control"}, "[28]": {"assay": "Oral bioavailability in male C57BL/6J mouse", "type": "ADME, organism-based", "details": "in vivo"}, "[29]": {"test_system": "RAW264.7", "assay": "Antiinflammatory activity against mouse RAW264.7 cells assessed as inhibition of LPS-induced iNOS mRNA production at 10 uM incubated for 24 hrs by SYBR green quantitative PCR analysis", "type": "functional, cell-based"}, "[30]": {"test_system": "Mus musculus", "assay": "Antiinflammatory activity against DSS-induced colitis C57BL/6J mouse model assessed as decrease in body weight loss at 3 mg/kg, po pretreated with DSS for 10 days followed by twice daily compound administration for 8 days starting from day 3 to day 10 relative to control", "type": "functional", "design": "scale not given: the % may be the effect or the level left", "details": "time 8 day"}}, "note": "The source made the active and inactive calls. The calls are words filed in the database; no cut-off is given here.", "data": [{"compound": "COc1cc(-c2ccc(OC(F)F)c3nn(C4CC4)cc23)cc(OC)c1OC", "values": [{"measurement": "inhibition", "setting": "[1]", "value": 42, "unit": "%"}, {"measurement": "Ratio IC50", "setting": "[2]", "value": "> 156"}, {"measurement": "Activity", "setting": "[3]", "value": "Active"}, {"measurement": "Activity", "setting": "[4]", "value": "Active"}, {"measurement": "Activity", "setting": "[5]", "value": "Active"}, {"measurement": "Ratio IC50", "setting": "[6]", "value": "> 156"}, {"measurement": "inhibition", "setting": "[7]", "value": 14, "unit": "%"}, {"measurement": "Activity", "setting": "[8]", "value": "Active"}, {"measurement": "IC50", "setting": "[9]", "value": 65.7, "unit": "nM"}, {"measurement": "Ratio IC50", "setting": "[10]", "value": "> 156"}, {"measurement": "Activity", "setting": "[11]", "value": "Active"}, {"measurement": "Activity", "setting": "[12]", "value": 4.9, "unit": "%"}, {"measurement": "inhibition", "setting": "[13]", "value": 7, "unit": "%"}, {"measurement": "Activity", "setting": "[14]", "value": "Active"}, {"measurement": "inhibition", "setting": "[15]", "value": 12, "unit": "%"}, {"measurement": "Activity", "setting": "[16]", "value": "Active"}, {"measurement": "Activity", "setting": "[17]", "value": "Active"}, {"measurement": "IC50", "setting": "[18]", "value": 10.5, "unit": "nM"}, {"measurement": "Activity", "setting": "[19]", "value": "Non-Toxic"}, {"measurement": "inhibition", "setting": "[20]", "value": 86, "unit": "%"}, {"measurement": "Activity", "setting": "[21]", "value": "Active"}, {"measurement": "IC50", "setting": "[22]", "value": 64.4, "unit": "nM"}, {"measurement": "Activity", "setting": "[23]", "value": "Non-Toxic"}, {"measurement": "Activity", "setting": "[24]", "value": "Non-Toxic"}, {"measurement": "Activity", "setting": "[25]", "value": "Non-Toxic"}, {"measurement": "Ratio IC50", "setting": "[26]", "value": "> 156"}, {"measurement": "inhibition", "setting": "[27]", "value": 6, "unit": "%"}, {"measurement": "bioavailability", "setting": "[28]", "value": 5, "unit": "%"}, {"measurement": "Activity", "setting": "[29]", "value": "Active"}, {"measurement": "Activity", "setting": "[30]", "value": 16.7, "unit": "%"}]}]}
